The target of assay [1] is His-GST-TVMV-hRIPK1(1-324) (Homo sapiens (Human), UniProt Q13546). As to the kind of experiment: RIPK1 HTRF Binding Assay. The following applies: HTRF binding, 1 h at rt; read-out: RIPK1 (IC50). The method in brief: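 HTRF probe-displacement binding: 1 nM His-GST-TVMV-hRIPK1(1-324) (baculovirus construct), 90.6 nM probe, 0.2 nM anti-GST-Tb in 20 mM HEPES, 10 mM MgCl2, 0.015% Brij-35, 4 mM DTT, 0.05 mg/mL BSA. Incubated 1 h at rt; FRET 520/495 nm ratio, inhibition relative to DMSO-only wells.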
His-GST-TVMV-hRIPK1(1-324), sequence (Q13546 1-324): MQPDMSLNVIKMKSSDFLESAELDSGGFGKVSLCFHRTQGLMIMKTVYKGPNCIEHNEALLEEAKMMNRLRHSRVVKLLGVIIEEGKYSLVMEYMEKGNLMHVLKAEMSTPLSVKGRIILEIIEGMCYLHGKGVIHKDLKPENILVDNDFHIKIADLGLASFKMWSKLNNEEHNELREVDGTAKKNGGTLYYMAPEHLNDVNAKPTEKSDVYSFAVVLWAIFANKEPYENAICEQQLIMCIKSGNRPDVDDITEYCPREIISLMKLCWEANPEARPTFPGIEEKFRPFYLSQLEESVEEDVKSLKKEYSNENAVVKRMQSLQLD

In assay [2] the test system is MLKL phosphorylation in HT29-L23 human colorectal adenocarcinoma cells. Description: MLKL Phosphorylation High-Content Assay. In kind it is cell-based. The following applies: 6 h, necroptosis induced with TNFα, SMAC mimetic and Z-VAD, read-out: pMLKL (IC50). The method in brief: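 HT29-L23 cells pretreated 30 min at 37 °C with compound (6.25 to 0.106 μM final), then necroptosis induced with TNFα 35 ng/mL, SMAC mimetic 700 nM and Z-VAD 140 nM for 6 h. Fixed cells immunostained for MLKL pS358 and imaged; IC50 and Ymax from 4-parameter logistic fit.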

In general, IC50 refers to the midpoint of a concentration-inhibition curve.

Structures can show the parent of a compound that is named as a salt. Where two headings read alike, the source gives them in different places.

Consider `[2H]C([2H])([2H])Oc1ncc(-c2ccc3nc(NC(C)=O)cn3n2)cc1C(=O)NC([2H])([2H])c1cc(F)cc(F)c1OC1CCOCC1` [Example 46, N-{[3,5-difluoro-2-(oxan-4-yloxy)phenyl](deutero)methyl}-5-{2-acetamidoimidazo[1,2-b]pyridazin-6-yl}-2-(D3)methoxypyridine-3-carboxamide], for which the IC50 turned out to be 0.002 µM in assay [1] and 0.001 µM in assay [2] (Homo sapiens).

As for `COc1nc(C)c(-c2ccc3nc(NC(C)=O)cn3n2)cc1C(=O)NCc1cc(F)cc(F)c1OCC1CCC1` [Example 294, N-{[2-(cyclobutylmethoxy)-3,5-difluorophenyl]methyl}-5-{2-acetamidoimidazo[1,2-b]pyridazin-6-yl}-2-methoxy-6-methylpyridine-3-carboxamide], the IC50 was 0.01 µM in assay [1] and 0.003 µM in assay [2] (Homo sapiens).

In the case of `COc1ncc(-c2ccc3nc(NC(C)=O)cn3n2)cc1C(=O)NCc1cccc(F)c1OC(C)C1CC1` (stereo not drawn) [Example 135, N-{[2-(1-cyclopropylethoxy)-3-fluorophenyl]methyl}-5-{2-acetamidoimidazo[1,2-b]pyridazin-6-yl}-2-methoxypyridine-3-carboxamide], the IC50 in assay [1] turned out to be 0.003 µM; in assay [2] it was 0.007 µM.

With `CC(=O)Nc1cn2nc(-c3ccc(C)c(C(=O)NCc4cc(C(=O)N5CCC(C)(C)C5)ccc4F)c3)ccc2n1` [Example 406, N-{[5-(3,3-dimethylpyrrolidine-1-carbonyl)-2-fluorophenyl]methyl}-5-{2-acetamidoimidazo [1,2-b]pyridazin-6-yl}-2-methylbenzamide], the IC50 in assay [1] is 0.163 µM; in assay [2] (Homo sapiens), 0.454 µM.

In the case of `CC(=O)Nc1cn2nc(-c3ccc(C)c(C(=O)NCC[C@@H](O)c4ccc(Cl)cc4)c3)ccc2n1` [Example 397, N-[(3R)-3-(4-chlorophenyl)-3-hydroxypropyl]-5-{2-acetamidoimidazo [1,2-b]pyridazin-6-yl}-2-methylbenzamide], the IC50 in assay [1] and in assay [2] (Homo sapiens) was 0.003 µM each time.

`CCC(=O)Nc1cn2nc(-c3cnc(OC)c(C(=O)NCc4cc(F)cc(F)c4OCC4CC4)c3)ccc2n1` [Example 4, N-{[2-(cyclopropylmethoxy)-3,5-difluorophenyl]methyl}-2-methoxy-5-{2-propanamidoimidazo[1,2-b]pyridazin-6-yl}pyridine-3-carboxamide]: the IC50 in assay [1] worked out at 0.002 µM; in assay [2] (Homo sapiens), 0.01 µM.

With “5-{2- acetamidoimidazo [1,2-b]pyridazin- 6-yl}-N-[(1R)- 1-[2-fluoro-5- (trifluoromethyl) phenyl](2,2,2-Â^2Hâ,f) ethyl]-2 methylbenzamide [Example 425]”, the figures for the IC50 in assay [1] and in assay [2] were greater than 5 µM and 0.327 µM, respectively.

As to `CCc1ncc(-c2ccc3nc(NC(C)=O)cn3n2)cc1C(=O)NCc1cc(C(F)(F)F)ccc1F` [Example 329, 5-{2-acetamidoimidazo[1,2-b]pyridazin-6-yl}-2-ethyl-N-{[2-fluoro-5-(trifluoromethyl)phenyl]methyl}pyridine-3-carboxamide], the IC50 was 0.053 µM in assay [1] and 0.088 µM in assay [2] (Homo sapiens).

For `COc1nc(C)c(-c2ccc3nc(NC(C)=O)cn3n2)cc1C(=O)NCc1ccccc1OC(F)(F)F` [Example 19, 5-{2-acetamidoimidazo[1,2-b]pyridazin-6-yl}-2-methoxy-6-methyl-N-{[2-(trifluoromethoxy)phenyl]methyl}pyridine-3-carboxamide], the results for the IC50 in assay [1] and in assay [2] (Homo sapiens) were 0.012 µM and 0.034 µM, respectively.

As to `COc1ncc(-c2ccc3nc(NC(C)=O)cn3n2)cc1C(=O)NCc1ccccc1-n1cccc1` [Example 160, 5-{2-acetamidoimidazo[1,2-b]pyridazin-6-yl}-2-methoxy-N-{[2-(1H-pyrrol-1-yl)phenyl]methyl}pyridine-3-carboxamide], the concentration for half-maximal inhibition (IC50) was found to be 0.489 µM in assay [1] and 0.331 µM in assay [2] (Homo sapiens).

With `[2H]C([2H])([2H])Oc1ncc(-c2ccc3nc(NC(C)=O)cn3n2)cc1C(=O)NCc1ccccc1OC(F)(F)F` [Example 14, 5-{2-acetamidoimidazo[1,2-b]pyridazin-6-yl}-2-(D3)methoxy-N-{[2-(trifluoromethoxy)phenyl]methyl}pyridine-3-carboxamide], the IC50 in assay [1] amounted to 0.033 µM; in assay [2] (Homo sapiens) it was 0.069 µM.

Consider `COc1nc(C)c(-c2ccc3nc(NC(C)=O)cn3n2)cc1C(=O)NCc1c(F)cc(F)cc1OCC1CCCC1` [Example 308, N-{[2-(cyclopentylmethoxy)-4,6-difluorophenyl]methyl}-5-{2-acetamidoimidazo[1,2-b]pyridazin-6-yl}-2-methoxy-6-methylpyridine-3-carboxamide], for which the results for the IC50 in assay [1] and in assay [2] (Homo sapiens) were 0.008 µM and 0.011 µM, respectively.

Take `COc1ncc(-c2ccc3nc(NC(C)=O)cn3n2)cc1C(=O)NCc1cc(F)cc(F)c1OCC1CC1` [Example 121, N-({2-[cyclopropyl(deutero)methoxy]-3,5-difluorophenyl}methyl)-5-{2-acetamidoimidazo[1,2-b]pyridazin-6-yl}-2-methoxypyridine-3-carboxamide]: the IC50 in assay [1] came to 0.003 µM; in assay [2], 0.009 µM.

Regarding `CC(=O)Nc1cn2nc(-c3cc(C(=O)NCc4cc(C(F)(F)F)ccc4F)cc(F)c3C)ccc2n1` [Example 372, 3-{2-acetamidoimidazo [1,2-b]pyridazin-6-yl}-5-fluoro-N-{[2-fluoro-5-(trifluoromethyl)phenyl]methyl}-4-methylbenzamide], the IC50 in assay [1] was 0.013 µM; in assay [2] (Homo sapiens), 0.122 µM.

As for `CC(=O)Nc1cn2nc(-c3cnc(C)c(C(=O)NC(C)c4ccccc4OC(F)(F)F)c3)ccc2n1` (stereo not drawn) [Example 203, 5-{2-acetamidoimidazo[1,2-b]pyridazin-6-yl}-2-methyl-N-{1-[2-(trifluoromethoxy)phenyl]ethyl}pyridine-3-carboxamide], the IC50 in assay [1] was greater than 5 µM; in assay [2] it was greater than 6.25 µM.

Take `[2H]C([2H])([2H])Oc1ncc(-c2ccc3nc(NC(C)=O)cn3n2)cc1C(=O)NCc1cc(OCC2CC2)ccc1F` [Example 56, N-{[5-(cyclopropylmethoxy)-2-fluorophenyl]methyl}-5-{2-acetamidoimidazo[1,2-b]pyri-dazin-6-yl}-2-(D3)methoxypyridine-3-carboxamide, TFA]: the IC50 came to 0.013 µM in assay [1] and 0.067 µM in assay [2] (Homo sapiens).

For `CC(=O)Nc1cn2nc(-c3cncc(C(=O)NCc4cc(OCC5CC5)ccc4F)c3)ccc2n1` [Example 236, N-{[5-(cyclopropylmethoxy)-2-fluorophenyl]methyl}-5-{2-acetamidoimidazo[1,2-b]pyridazin-6-yl}pyridine-3-carboxamide], the IC50 in assay [1] came out at 0.095 µM; in assay [2] (Homo sapiens), 0.18 µM.

On to `COc1nc(C)c(-c2ccc3nc(NC(C)=O)cn3n2)cc1C(=O)NCCc1cccc(OC(F)(F)F)c1` [Example 304, 5-{2-acetamidoimidazo[1,2-b]pyridazin-6-yl}-2-methoxy-6-methyl-N-{2-[3-(trifluoromethoxy)phenyl]ethyl}pyridine-3-carboxamide], for which the IC50 in assay [1] was found to be 0.206 µM; in assay [2] (Homo sapiens), 0.067 µM.

As to `CC(=O)Nc1cn2nc(-c3cnc(C)c(C(=O)N(C)[C@H](C)c4cc(OC(F)(F)F)ccc4F)c3)ccc2n1` [Example 330, 5-{2-acetamidoimidazo[1,2-b]pyridazin-6-yl}-N-[(1R)-1-[2-fluoro-5-(trifluoromethoxy)phenyl]ethyl]-N,2-dimethylpyridine-3-carboxamide], the IC50 in assay [1] is 0.046 µM; in assay [2] (Homo sapiens), 0.106 µM.

Turning to `CC(=O)Nc1cn2nc(-c3cnc(C)c(C(=O)NC(C)c4cc(OC(F)(F)F)ccc4F)c3)ccc2n1` (single isomer, unassigned) [Example 9-1, 5-(2-acetamidoimidazo[1,2-b]pyridazin-6-yl)-N-(1-(2-fluoro-5-(trifluoromethoxy)phenyl)ethyl)-2-methylnicotinamide], the IC50 in assay [1] and in assay [2] (Homo sapiens) was 0.025 µM each time.

As to `COc1ncc(-c2ccc3nc(NC(=O)C(C)(C)C#N)cn3n2)cc1C(=O)NCc1cc(OCC2CC2)ccc1F` [Example 29, 5-[2-(2-cyano-2,2-dimethylacetamido)imidazo[1,2-b]pyridazin-6-yl]-N-{[5-(cyclopropylmethoxy)-2-fluorophenyl]methyl}-2-methoxypyridine-3-carboxamide], the IC50 was found to be 0.257 µM in assay [1] and 0.45 µM in assay [2] (Homo sapiens).

Consider `[2H]C([2H])([2H])[C@@H](NC(=O)c1c(F)ccc(-c2ccc3nc(NC(C)=O)cn3n2)c1F)c1cc(OC(F)(F)F)ccc1F` [Example 380, 3-{2-acetamidoimidazo [1,2-b]pyridazin-6-yl}-2,6-difluoro-N-[(1R)-1-[2-fluoro-5-(trifluoromethoxy)phenyl](2,2,2-Â^2Hâ,f)ethyl} benzamide], for which the values for the IC50 in assay [1] and in assay [2] (Homo sapiens) were 0.003 µM and 0.009 µM, respectively.

In the case of `CC(=O)Nc1cn2nc(-c3cnc(C)c(C(=O)NCc4cccc(F)c4OCC4CC4)c3)ccc2n1` [Example 212, N-{[2-(cyclopropylmethoxy)-3-fluorophenyl]methyl}-5-{2-acetamidoimidazo [1,2-b]pyridazin-6-yl}-2-methylpyridine-3-carboxamide], the IC50 came to 0.008 µM in assay [1] and 0.004 µM in assay [2] (Homo sapiens).

For the compound `COc1ncc(-c2ccc3nc(NC(C)=O)cn3n2)cc1C(=O)NCCC(C)c1ccccc1` (stereo not drawn) [Example 25, 5-{2-acetamidoimidazo[1,2-b]pyridazin-6-yl}-2-methoxy-N-(3-phenylbutyl)pyridine-3-carboxamide], the IC50 is 0.002 µM in assay [1] and 0.009 µM in assay [2] (Homo sapiens).

Source of the values: patent US11440913B2, “Aminoimidazopyridazines as kinase inhibitors” (BRISTOL-MYERS SQUIBB COMPANY, priority 2017, dated 2022).
